Test results from patent publication US20080176857A1, “4-Piperazinnylthieno[2,3-d]Pyrimidine Compounds as Platelet Aggregation Inhibitors” (priority 2005, published 2008).
Values joined by “and” are separate entries in the source; they are usually repeats but may differ in a detail not shown here. Equal entries are not always repeated.

How the values were obtained:
[1] = target: T1, P2Y12 receptor (Homo sapiens, UniProt Q9H244); experiment: [33P]2MeS-ADP binding to washed human platelet membranes (Assay 1); parameters: the P2Y12 receptor, which is found on the surface of platelets; tissue Interstate Blood bank, Memphis, Tenn; host or cells: washed human platelets from platelet rich plasma; conditions: for inhibition at 10 µM: at highest concentration tested
T1 sequence (Q9H244 whole entry): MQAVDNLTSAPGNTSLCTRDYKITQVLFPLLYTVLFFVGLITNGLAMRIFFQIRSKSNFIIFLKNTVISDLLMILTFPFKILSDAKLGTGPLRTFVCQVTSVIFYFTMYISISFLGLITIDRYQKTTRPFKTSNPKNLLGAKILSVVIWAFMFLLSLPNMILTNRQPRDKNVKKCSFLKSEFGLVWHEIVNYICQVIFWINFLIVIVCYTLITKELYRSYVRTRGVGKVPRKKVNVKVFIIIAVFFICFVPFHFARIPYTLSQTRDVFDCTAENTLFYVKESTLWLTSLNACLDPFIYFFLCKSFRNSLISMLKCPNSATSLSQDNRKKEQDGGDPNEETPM
Procedure: 1. Inhibition of [^33P]2MeS-ADP Binding to Washed Human Platelet Membranes. The ability of a test compound to bind to the P2Y12 receptor was evaluated in a platelet membrane binding assay. In this competitive binding assay, the test compound competed against a radiolabelled agonist for binding to the P2Y12 receptor, which is found on the surface of platelets. Inhibition of binding of the labeled material was measured and correlated to the amount and potency of the test compound. Data from this assay are presented in Table F. Platelet rich plasma (“PRP”) was obtained from the Interstate Blood bank, Memphis, Tenn. Platelet rich plasma was prepared from blood units collected in ACD ((prepared by (1) combining: 2.5 g sodium citrate (Sigma S-4641); 1.5 g citric acid (Sigma C-0706); and, 2.0 g dextrose (Sigma G-7528); (2) bringing pH to 4.5; and (3) adding water to bring volume to 100 mL) and using the light spin protocol; this protocol involves centrifugation at room temperature for approximately 20 minutes at speeds up to 160×g. Platelet rich plasma is supplied in units of approximately 200 ml. Each unit is distributed into four 50 mL polypropylene conical tubes for centrifugation. Blood from each donor is maintained separately.
The 50 mL tubes were centrifuged for 15 minutes at 1100 rpm in Sorvall RT6000D (with H1000B rotor). Internal centrifuge temperature was maintained at approximately room temperature (22-24° C.). This spin pelleted cellular components remaining from the PRP preparation.
The supernatant was decanted into fresh 50 mL tubes. To avoid carry over of cellular components following the room temperature centrifugation, approximately 5 mL of PRP was left in the tube and discarded. The tubes were capped and inverted 2-3 times and allowed to stand at room temperature for at least 15 minutes following inversion.
Optionally, a Coulter Counter may be used to count platelets from the resting samples during the resting phase. Normal human platelet counts are expected to range from 200,000 to 400,000 per μL of PRP supernatant.
The 50 mL tubes containing PRP supernatant were centrifuged for 15 minutes at 2300-2400 rpm to loosely pellet the platelets. The supernatant from this spin was decanted immediately into a clean cell culture bottle (Corning bottle) and saved in case further centrifugation was needed. The pellet of each tube was resuspended in 2-4 mL of Wash buffer (pH 6.5) (1 L prepared new daily—134 mM NaCl (Sigma S-5150); 3 mM KCl (Sigma P-9333); 1 mM CaCl2 (JT Baker 1311-01); 2 mM MgCl2 (Sigma M-2670); 5 mM glucose (EM 4074-2); 0.3 mM NaH2PO4 (Sigma S-9638)/12 mM NaHCO3 (JT Baker 3506-01); 5 mM HEPES pH 7.4 (Gibco 12379-012); 0.35% BSA (Sigma A-7906); 330 mg Heparin (bovine lung, Sigma H-4898); and 30 mL of ACD) by repeated gentle aspiration using disposable polypropylene sample pipettes.
Wash buffer (pH 6.5) was added to each tube to bring the volume to approximately 40 mL. Each tube was incubated for at least 15 minutes at 37° C.
The tubes were then centrifuged again for 15 minutes at 2300-2400 rpm to loosely pellet the platelets. The supernatant was decanted and discarded. The pellet was resuspended in 2-4 mL of Assay buffer (pH 7.4) (1 L volume—134 mM NaCl; 3 mM KCl; 1 mM CaCl2; 2 mM MgCl2; 5 mM glucose; 0.3 mM NaH2PO4/12 mM NaHCO3; 5 mM HEPES pH 7.4; and 0.35% BSA) by repeated aspiration using disposable polypropylene sample pipettes.
The pooled platelet preparation was counted using a Coulter Counter. […]

[2] = target: T1, P2Y12 receptor; experiment: [33P]-2MeS-ADP binding to recombinant human P2Y12 membranes (Assay 3); parameters: expressed in transfected cells; host or cells: HEK cells; conditions: for IC50 / Ki: HEK cell membranes expressing human P2Y12, competition with 33P 2MeS-ADP
Summary of the method: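 Membranes from HEK cells transfected with human P2Y12, used in competitive binding against [33P]-2MeS-ADP in Tris/NaCl/EDTA buffer with 0.02% BSA. Seven-point 3-fold dilutions from 10 μM final, 1 h at room temperature, then filtration and scintillation counting. IC50 from four-parameter fit with Hill slope fixed at one, plate controls defining min/max.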

[3] = washed human platelet membranes, competition with [33P]2MeS-ADP
[4] = at highest concentration tested, 10 μM
[5] = at highest concentration tested, 1 μM

CCc1cc2c(N3CCN(C(=O)Cc4ccccc4)CC3)nc(SCc3ccccc3)nc2s1 [Example 85, 2-(benzylthio)-6-ethyl-4-[4-(phenylacetyl)piperazin-1-yl]thieno[2,3-d]pyrimidine] was tested, and the inhibition at 10 µM [1] was 39.5% and the IC50 [1, 3] was over 10000 nM.

CCc1cc2c(N3CCN(C(=O)Cc4ccccc4)CC3)nc(SCc3ccco3)nc2s1 [Example 86, 6-ethyl-2-[(2-furylmethyl)thio]-4-[4-(phenylacetyl)piperazin-1-yl]thieno[2,3-d]pyrimidine] was tested, and the inhibition at 10 µM [1] was 52.9%, the IC50 [1, 3] was 7930 nM and the Ki [1, 3] was 7510 nM.

CCc1cc2c(N3CCN(C(=O)c4ccc(C(=O)OC)cc4)CC3)nc(SCC(=O)OC)nc2s1 [Example 80, Methyl 4-[(4-{6-ethyl-2-[(2-methoxy-2-oxoethyl)thio]thieno[2,3-d]pyrimidin-4-yl}piperazin-1-yl)carbonyl]benzoate] gave an IC50 [2] of 3780 nM, a Ki [2] of 2450 nM and an inhibition at 10 µM [2, 4] of 60%.

With CCc1cc2c(N3CCN(C(=O)c4ccccc4)CC3)nc(SCC(=O)OC)nc2s1 [Example 56, Methyl {[4-(4-benzoylpiperazin-1-yl)-6-ethylthieno[2,3-d]pyrimidin-2-yl]thio}acetate] the IC50 [2] was 3040 nM, the Ki [2] was 1520 nM and the inhibition at 10 µM [2, 4] was 64.1%.

With CCc1cc2c(N3CCN(C(=O)c4ccc(-c5ccccc5)cc4)CC3)nc(SCC(N)=O)nc2s1 [Example 31, 2-({4-[4-(1,1′-Biphenyl-4-ylcarbonyl)piperazin-1-yl]-6-ethylthieno[2,3-d]pyrimidin-2-yl}thio)acetamide] the IC50 [2] was 31 nM, the Ki [2] was 18 nM and the inhibition at 10 µM [2, 4] was 99.7%.

Molecule C#CCCC(=O)N1CCN(c2nc(SCC(=O)OC)nc3sc(CC)cc23)CC1 [Example 37, Methyl {[6-ethyl-4-(4-pent-4-ynoylpiperazin-1-yl)thieno[2,3-d]pyrimidin-2-yl]thio}acetate] has an IC50 [2] of 1250 nM, a Ki [2] of 840 nM and an inhibition at 10 µM [2, 4] of 78.3%.

CCc1cc2c(N3CCN(C(=O)c4ccc5c(c4)OCC5)CC3)nc(SCC(=O)OC)nc2s1 [Example 67, Methyl ({4-[4-(2,3-dihydro-1-benzofuran-6-ylcarbonyl)piperazin-1-yl]-6-ethylthieno[2,3-d]pyrimidin-2-yl}thio)acetate] showed an IC50 [2] of 1230 nM, a Ki [2] of 740 nM and an inhibition at 10 µM [2, 4] of 79.7%.

For CCc1cc2c(N3CCN(C(=O)c4ccc(-c5ccccc5)cc4)CC3)nc(Cl)nc2s1 [Example 21, 4-[4-(1,1′-Biphenyl-4-ylcarbonyl)piperazin-1-yl]-2-chloro-6-ethylthieno[2,3-d]pyrimidine], the IC50 [2] was 22 nM and 10 nM and 20 nM and 43 nM, the Ki [2] was 12 nM and 10 nM and 25 nM and the “% Inhibition” value [2, 5] was 95.00%. The inhibition at 1 µM [2, 5] was 91.9%, the “% Inhibition” value [2, 4] was 98.24% and the inhibition at 10 µM [2, 4] was 95.8%.

For CCc1cc2c(N3CCN(C(=O)Cc4ccccc4)CC3)nc(SCCN(C)C)nc2s1 [Example 88, N-[2-({6-ethyl-4-[4-(phenylacetyl)piperazin-1-yl]thieno[2,3-d]pyrimidin-2-yl}thio)ethyl]-N,N-dimethylamine], the IC50 [2] was 1680 nM and 1480 nM and 640 nM and 370 nM and 1200 nM, the Ki [2] was 913 nM and 848 nM and 370 nM and 210 nM and 700 nM and the “% Inhibition” value [2, 4] was 80.30% and 84.54% and 89.14% and 82.41%. The inhibition at 10 µM [2, 4] was 94.1%.

Molecule C#CCCCCC(=O)N1CCN(c2nc(SCC(=O)OC)nc3sc(CC)cc23)CC1 [Example 36, Methyl {[6-ethyl-4-(4-hept-6-ynoylpiperazin-1-yl)thieno[2,3-d]pyrimidin-2-yl]thio}acetate] has an IC50 [2] of 220 nM, a Ki [2] of 150 nM and an inhibition at 10 µM [2, 4] of 97.6%.

In the case of CCc1cc2c(N3CCN(C(=O)CCC4CCCC4)CC3)nc(SCC(=O)OC)nc2s1 [Example 40, Methyl ({4-[4-(3-cyclopentylpropanoyl)piperazin-1-yl]-6-ethylthieno[2,3-d]pyrimidin-2-yl}thio)acetate], the IC50 [2] is reported as 4150 nM, the Ki [2] is reported as 2760 nM and the inhibition at 10 µM [2, 4] is reported as 59%.

In the case of CCc1cc2c(N3CCN(C(=O)CCOC)CC3)nc(SCC(=O)OC)nc2s1 [Example 58, Methyl ({6-ethyl-4-[4-(3-methoxypropanoyl)piperazin-1-yl]thieno[2,3-d]pyrimidin-2-yl}thio)acetate], the IC50 [2] is reported as 5250 nM, the Ki [2] is reported as 2620 nM and the inhibition at 10 µM [2, 4] is reported as 53.6%.

In the case of CCc1cc2c(N3CCN(C(=O)Cc4ccccc4)CC3)nc(SCC(N)=O)nc2s1 [Example 24, 2-({6-Ethyl-4-[4-(phenylacetyl)piperazin-1-yl]thieno[2,3-d]pyrimidin-2-yl}thio)acetamide], the IC50 [2] is reported as 190 nM and 240 nM, the Ki [2] is reported as 110 nM and 130 nM and the “% Inhibition” value [2, 4] is reported as 92.16%. For the same molecule, the inhibition at 10 µM [2, 4] was 83.1%.
